From patent US7935806B2, “Method for performing in vitro diagnosis using gene regulation mechanisms and corresponding diagnosis kit” (Unisensor S.A., priority 2001, dated 2011)

Columns and labels:
[1] = biological target: T1, avidin (Gallus gallus, UniProt P02701); conditions: non-covalent; cited from earlier work
T1 construct: The avidin is a tetrameric glycoprotein isolated from egg-white; from tissue; host or cells: egg-white

[2] = biological target: T2, tetR of class C (Escherichia coli, UniProt P03039); assay type: binding, E. Coli C600; conditions: 25 ppb in honey, read with the naked eye
T2 construct: two primers have been selected for amplification by PCR of the gene which has then been cloned in a pet12a-expression plasmid; made in house; host or cells: E. coli HB101 carrying pT7po123; expression plasmid pet12a
T2 sequence (P03039 whole entry): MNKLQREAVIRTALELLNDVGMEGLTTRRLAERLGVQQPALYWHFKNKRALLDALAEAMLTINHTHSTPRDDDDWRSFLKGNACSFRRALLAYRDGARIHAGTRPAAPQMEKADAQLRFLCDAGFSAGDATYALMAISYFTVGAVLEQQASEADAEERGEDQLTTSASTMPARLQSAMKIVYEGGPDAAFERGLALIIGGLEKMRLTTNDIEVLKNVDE
Procedure: In the example showing the measurement of the concentration based on samples of honey, one unpurified part of serum obtained above is placed in the presence of one part of tetR receptor obtained above in 1.1.1, 15 parts of A-protein marked by means of particles of colloidal gold of 40 nm and one DO at 500 nm of 10 (available from Unisensor S.A., Liege, Belgium) and 20 parts of lyophilisation buffer (Tris 10 mM, pH 8, BSA 5 mg/ml, sucrose 10 g/l). This mixture is lyophilised for 20 hours.
To 1 gram of honey are added 3 ml of dilution buffer (for 1 litre, 2.73 g of Na2HPO4.2H2O, 1.65 g of citric acid, 7 g of BSA and 2.5 g of Tween-20, pH 5) and the solutin is stirred vigorously so as to obtain a homogeneous solution. 200 μl of this dilution of the sample of honey are then incubated in the presence of the lyophilisate prepared above (see Point 1.1.2.2). After 10 minutes of incubation at ambient temperature (±20° C.), the analysis strip described above at 1.3 is immersed in the solution. The final interpretation is made with the naked eye, after 15 minutes of incubation at ambient temperature.

[3] = biological target: MetJ (Escherichia coli, UniProt P0A8U6); conditions: in the presence of the co-repressor; cited from earlier work
Sequence of MetJ (P0A8U6 2-105): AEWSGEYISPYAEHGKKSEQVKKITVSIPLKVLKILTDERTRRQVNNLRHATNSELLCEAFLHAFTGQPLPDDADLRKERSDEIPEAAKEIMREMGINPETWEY

T1 sequence (P02701 25-152): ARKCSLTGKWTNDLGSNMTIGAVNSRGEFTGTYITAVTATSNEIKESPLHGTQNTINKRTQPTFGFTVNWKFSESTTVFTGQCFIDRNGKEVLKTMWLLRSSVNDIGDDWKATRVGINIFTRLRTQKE

## O=C(O)CCCC[C@@H]1SC[C@@H]2NC(=O)N[C@@H]21 [biotin]
[1]
  affinity of avidin sub-unit for biotin (Ka): 10^15 M^−1

## CN(C)[C@@H]1C(O)=C(C(N)=O)C(=O)[C@@]2(O)C(O)=C3C(=O)c4c(O)ccc(Cl)c4[C@@H](O)[C@H]3C[C@@H]12 [demedocycline]
[2]
  test result (test signal lower than control signal = positive): positive result

## C[S+](CC[C@H](N)C(=O)[O-])C[C@H]1O[C@@H](n2cnc3c(N)ncnc32)[C@H](O)[C@@H]1O (stereo partly drawn) [s-adenosylmethionine]
[3]
  increase of MetJ affinity for DNA: more than 1,000 times
